The text below walks through data of patent US11820756B2, “Bradykinin B2 receptor antagonists” (Pharvaris Netherlands B.V., priority 2017, dated 2023).

In general, IC50 refers to the concentration that inhibits the measured activity by half.

The structures appear in SMILES notation. Bounds are passed on as bounds.

For the assay, the target named is T1, human bradykinin B2 receptor (hB2R) (Homo sapiens, UniProt P30411).
T1 sequence (P30411 1-391): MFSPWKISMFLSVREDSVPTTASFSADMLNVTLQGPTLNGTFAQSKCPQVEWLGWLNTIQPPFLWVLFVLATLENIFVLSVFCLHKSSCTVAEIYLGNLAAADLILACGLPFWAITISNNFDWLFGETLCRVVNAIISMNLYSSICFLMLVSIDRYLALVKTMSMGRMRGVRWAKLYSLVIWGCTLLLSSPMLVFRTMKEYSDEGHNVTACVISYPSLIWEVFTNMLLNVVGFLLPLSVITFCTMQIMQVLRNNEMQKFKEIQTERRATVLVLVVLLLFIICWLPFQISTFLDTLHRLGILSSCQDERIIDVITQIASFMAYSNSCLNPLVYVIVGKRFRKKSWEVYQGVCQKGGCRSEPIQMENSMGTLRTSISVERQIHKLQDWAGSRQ
As to the kind of experiment: cell-based human bradykinin B2 receptor calcium mobilization (hB2R-CaM) assay. Conditions: HTS041C cells, bradykinin at EC80, calcium mobilization; read-out: IC50-value towards human bradykinin B2 receptor (hB2R). The method in brief: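 HTS041C cells stably expressing hB2R were serum-reduced, loaded with Calcium 6 dye and pre-incubated with compound (8-point, n=2, 0.1% DMSO) for 25 min at 37° C. Bradykinin was then added at EC80. IC50 came from a 4-parameter logistic fit of the max-min fluorescence signal (485/525 nm).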

`Cc1cc(-n2cc(F)cn2)c2cccc(OCc3c(Cl)cc(F)cc3[C@H](C)NC(=O)C3CCC(C)(C)O3)c2n1` (some centres unmarked) [Compound 109]: the IC50 lay in the range of 0.051 to 0.25 µM. The same measure for `Cc1cc(-n2cc(F)cn2)c2cccc(OCc3c(Cl)cc(F)cc3[C@H](C)NC(=O)C3CCO3)c2n1` (some centres unmarked) [Compound 56]: at most 0.05 µM. Regarding `Cc1cc(-n2cc(F)cn2)c2cccc(OCc3c(Cl)cc(F)cc3[C@H](C)N(C)C(=O)CO)c2n1` [Compound 102], the IC50 is at most 0.05 µM.

In the case of `Cc1cc(-c2ncnn2C)c2cccc(OCc3c(Cl)cc(F)cc3[C@H](C)NC(=O)c3cocn3)c2n1` [Compound 128], the IC50 is at most 0.05 µM. To `COCC(=O)N[C@@H](C)c1cc(F)cc(Cl)c1COc1cccc2c(-n3cc(F)cn3)cc(C)nc12` [Compound 12] belongs at most 0.05 µM.

`Cc1cc(-c2ccnn2C)c2cccc(OCc3c(Cl)cc(F)cc3[C@H](C)NC(=O)[C@@H](C)O)c2n1` [Compound 192]: the IC50 is at most 0.05 µM.

As to `CCn1ncnc1-c1cc(C)nc2c(OCc3c(Cl)cc(F)cc3[C@H](C)NC(=O)c3ccon3)cccc12` [Compound 141], the IC50 was at most 0.05 µM.

As to `Cc1cc(-n2ncc(F)c2C)c2cccc(OCc3c(Cl)cc(F)cc3[C@H](C)NC(=O)[C@@H](C)O)c2n1` [Compound 8, (R)—N—((S)-1-(3-chloro-5-fluoro-2-((4-(4-fluoro-5-methyl-1H-pyrazol-1-yl)-2-methylquinolin-8-yloxy)methyl)phenyl)ethyl)-2-hydroxypropanamide], the half-maximal inhibitory concentration (IC50) lay in the range of 0.051 to 0.25 µM. To `Cc1cc(-n2nccn2)c2cccc(OCc3c(Cl)cc(F)cc3[C@H](C)NC(=O)[C@@H](C)O)c2n1` [Compound 31] belongs 0.051 to 0.25 µM; to `CCC[C@H](O)C(=O)N[C@@H](C)c1cc(F)cc(Cl)c1COc1cccc2c(-n3cc(F)cn3)cc(C)nc12` [Compound 50], 0.051 to 0.25 µM; to `CC[C@H](NC(=O)c1cocn1)c1cc(F)cc(Cl)c1COc1cccc2c(-c3ncnn3C)cc(C)nc12` [Compound 155], at most 0.05 µM. To `Cc1cc(-n2cnc(C)n2)c2cccc(OCc3c(Cl)cc(F)cc3[C@H](C)NC(=O)c3cnco3)c2n1` [Compound 96] belongs 0.051 to 0.25 µM; to `[2H][C@@](C)(NC(=O)[C@H](C)F)c1cc(F)cc(Cl)c1COc1cccc2c(-c3ncnn3C)cc(C)nc12` [Compound 213], at most 0.05 µM; to `CC[C@H](NC(=O)c1ccon1)c1cc(F)cc(Cl)c1COc1cccc2c(-c3ncnn3C)cc(C)nc12` [Compound 150], at most 0.05 µM. On to `Cc1cc(-n2cc(F)cn2)c2cccc(OCc3c(Cl)cc(F)cc3[C@H](C)NC(=O)C3(C)COC3)c2n1` [Compound 58], for which the 50% inhibitory concentration (IC50) is at most 0.05 µM. The same measure for `Cc1cc(-c2ncnn2C)c2cccc(OCc3c(Cl)cc(F)cc3[C@H](C)NC(=O)c3cc(C)n(C)n3)c2n1` [Compound 129]: at most 0.05 µM; for `Cc1cc(-c2ncnn2C)c2cccc(OCc3c(Cl)cc(F)cc3[C@H](C)NC(=O)c3ccccn3)c2n1` [Compound 164]: at most 0.05 µM. To `Cc1cc(-n2cc(F)cn2)c2cccc(OCc3c(Cl)cc(F)cc3[C@H](C)NC(=O)[C@@H]3COC(C)(C)O3)c2n1` [Compound 61] belongs at most 0.05 µM; to `Cc1cc(-n2cc(F)cn2)c2cccc(OCc3c(Cl)cc(F)cc3[C@H](C)NC(=O)C(C)C(F)(F)F)c2n1` (some centres unmarked) [Compound 54], 0.051 to 0.25 µM. The same measure for `Cc1cc(-n2cc(F)cn2)c2cccc(OCc3c(Cl)cc(F)cc3[C@H](CO)NC(=O)C(C)(C)O)c2n1` [Compound 105]: 0.051 to 0.25 µM. Turning to `Cc1cc(-n2cc(F)cn2)c2cccc(OCc3c(Cl)cc(F)cc3[C@H](C)NC(=O)[C@@H]3CCC(=O)N3)c2n1` [Compound 114], the concentration for half-maximal inhibition (IC50) fell in the range of 0.051 to 0.25 µM. In the case of `Cc1cc(-n2cc(F)cn2)c2cccc(OCc3c(Cl)cc(F)cc3[C@H](C)NC(=O)C3(C)CCCO3)c2n1` (some centres unmarked) [Compound 110], the IC50 is at most 0.05 µM.

`Cc1cc(-c2ncnn2C)c2cccc(OCc3c(Cl)cc(F)cc3[C@H](C)NC(=O)c3cc(C)on3)c2n1` [Compound 127]: the IC50 was at most 0.05 µM.
